From BindingDB's records for doi:10.1021/bi000930v (Max Planck Institute, 2001)

Columns and labels:
[1] = target: T1, E3 ubiquitin-protein ligase Mdm2 (Homo sapiens, UniProt Q00987); assay: p53-MDM2 Binding ELISA; conditions: pH 7.4; 23 °C
Experimental: Interference of the p53-MDM2 binding by test compounds was measured in a 96-well polypropylene round-bottom microtiter plate (Costar, Serocluster). Human MDM2 (amino acids 1-118) was preincubated with 10% DMSO or compounds in assay buffer. After 15-min incubation of the sample, a biotinylated p53-derived peptide was added. As a negative control, buffer only was added into separate wells (blanks). After another 30 min, the incubation mixture was added to 96-well plates coated with streptavidin. After 1 h, the wells were extensively washed. Then, the MDM2 specific antibody was added. After 1 h, the wells were thoroughly washed and the secondary antibody (anti-rabbit-IgG-POD) was added. After another hour, the wells were washed, and the peroxidase subtrate ABTS was added. After 30 min, OD 405/490 nm was determined with a Dynatech MR 7000 ELISA reader.

[2] = target: T1, E3 ubiquitin-protein ligase Mdm2; assay: NMR Titration Experiment; conditions: pH 7.4; 23 °C
Experimental: NMR measurements consisted of monitoring changes in chemical shifts and line widths of the backbone amide resonances of uniformly 15N-enriched MDM2 samples in a series of HSQC spectra as a function of a ligand concentration. The complexes of human MDM2 and the chalcones were prepared by mixing the protein and the ligand in the NMR tube. Typically, NMR spectra were recorded 15 min after mixing at room temperature. An initial screening of all compounds used in this study was performed with a 10-fold molar excess of chalcone to human MDM2. […] All KD values obtained by NMR spectroscopy are based on at least six data points.

T1 sequence (Q00987 whole entry, the tested form may be a part): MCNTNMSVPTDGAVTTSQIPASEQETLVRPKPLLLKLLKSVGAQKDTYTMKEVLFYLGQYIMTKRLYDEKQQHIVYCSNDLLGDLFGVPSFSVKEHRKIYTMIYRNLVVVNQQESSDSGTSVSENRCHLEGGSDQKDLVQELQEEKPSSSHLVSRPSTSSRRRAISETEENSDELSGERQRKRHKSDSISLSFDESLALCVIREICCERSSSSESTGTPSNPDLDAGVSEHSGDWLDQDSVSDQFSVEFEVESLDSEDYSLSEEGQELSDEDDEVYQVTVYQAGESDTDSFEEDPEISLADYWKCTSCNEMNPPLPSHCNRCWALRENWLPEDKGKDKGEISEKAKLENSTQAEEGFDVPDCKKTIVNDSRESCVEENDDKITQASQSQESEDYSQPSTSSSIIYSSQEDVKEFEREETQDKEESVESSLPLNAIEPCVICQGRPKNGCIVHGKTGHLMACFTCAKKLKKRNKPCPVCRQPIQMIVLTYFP

Row | Compound | IC50 [1] [µM] | Kd [2] [µM]
1 | CCOC(=O)C(C)(C)Oc1ccc(CCNC(=O)/C=C/C(=O)c2ccc(Cl)cc2)cc1 [Chalcone derivative, E] | > 250 | 
2 | O=C(O)COc1ccc(C(=O)/C=C/c2ccc(Cl)c(Cl)c2)cc1 [Chalcone derivative, B-1] | 117 | 150
3 | O=C(CC(=Nc1ccccc1)c1ccccc1)Nc1ccccc1 [Chalcone derivative, F] | > 250 | 
4 | O=C(O)COc1ccc(/C=C/C(=O)c2ccc(Cl)cc2)cc1 [Chalcone derivative, A] | 206 | 220
5 | CC(C)(Oc1ccc(/C=C/C(=O)c2ccc(Cl)cc2)cc1)C(=O)O [Chalcone derivative, C] | 250 | 244
6 | Oc1ccc2ccc3c(c2c1)CN(Cc1ccccc1)CO3 [Chalcone derivative, D] | > 250 | 
7 | CCOc1ccc(NC(=O)CC(=Nc2ccccc2)c2ccccc2)cc1 [Chalcone derivative, G] | > 250 | 
8 | O=C(O)COc1c(Br)cc(/C=C/C(=O)c2ccc3ccccc3c2)cc1Br [Chalcone derivative, N] |  | 270
9 | O=C(C(=S)Nc1ccccc1)C(C=Nc1ccccc1)c1ccccc1 (centres undefined) [Chalcone derivative, H] | > 250 | 
10 | O=C(O)COc1ccc(/C=C/C(=O)c2ccc(Cl)c(Cl)c2)cc1 [Chalcone derivative, B] | 49 | 90
